{"source": "patent US20120208848A1", "about": "(NEUROSYSTEC CORPORATION, priority 2005, published 2012)", "format_in_all_cases": "physicochemical", "key": {"[1]": {"assay": "Maintenance of gacyclidine in solution (HPLC solution concentration over time)", "conditions": "20° C.", "description": "Gacyclidine was detected using a Surveyor HPLC system (Thermo Electron). A Grace Vydac C8 MASS SPEC column (cat #208MS5210; S/N NE981208-3-7) purchased from The Nest Group (Southboro, Mass.) was employed for these analyses. The chromatographic column was maintained at 30° C. Samples were prepared in 12 mm×32 mm autosampler vials (Thermo Electron, A4954-010) and maintained at 20° C. in the autosampler.\nFor maximum accuracy, a ‘full-loop’ injection protocol was employed, in which 80.7 μL was withdrawn from the vial to over-fill a 20 μL injection loop. The entire sample contained in the 20 μL injection loop was applied to the C8 chromatography column. The sample was then eluted at a flow rate of 300 μL/min with a step gradient composed of water containing 0.1% (volume/volume) trifluoroacetic acid (buffer A) and acetonitrile containing 0.1% (volume/volume) trifluoroacetic acid (buffer B). The step gradient consisted of elution with 100% buffer A from 0 to 5 minutes; 80% buffer A-20% buffer B from 5 to 15 minutes; 100% buffer B from 15 to 20 minutes and 100% buffer A from 20 to 25 minutes.\nThe column eluant was monitored at 234 nm by use of a Thermo Electron PDA UV detector. […] The presence of gacyclidine was confirmed by connecting the column eluant, after passage through the UV detector, to an AQA mass spectrometer (Thermo Electron).\nAn aliquot (10 μL) of these solutions was then added to 10.0 mL of either Ringer's Lactate (pH 6.6), Ringer's Lactate containing 100 μM NaOH (pH 7.5), or 0.1 N HCl (pH 1.0) to give a final drug concentration of 100 μM. Aliquots of these drug solutions were transferred to autosampler vials and maintained at 20° C. until being analyzed by HPLC."}, "[2]": {"assay": "Solubility of gacyclidine as a function of pH and excipients, room temperature, glass vials", "description": "Thereafter the mixture remained standing at room temperature for two days.\nThe pH of the mixture was determined by use of a SympHony glass calomel micro combination pH electrode obtained from VWR (Cat. No. 14002-776). Oakton standard reference solutions at pH 7.00±0.01 (25° C.; 7.02 at 20° C.), 4.01±0.01 (25° C.; 4.00 at 20° C.) and 10.00 (25° C.; 10.05 at 20° C.) were obtained from Cole-Parmer. These standard pH solutions were used to calibrate a Cole-Parmer Model 5996-60 analog pH meter equipped with a SympHony electrode to within 0.01 pH units of reference solutions."}, "[3]": {"assay": "Effect of pH and polysorbate 80 on gacyclidine stability in Ringer's solution at 55° C.", "description": "These samples were then incubated at 55° C. for 24 hours. […] The pH of each sample was determined at 55° C. by use of a pH meter standardized at 55° C. The pH meter, electrode and standards were the same as described in Example 3."}, "[4]": {"assay": "Elution of gacyclidine from a suspension of the free base form", "description": "The pH of these solutions was monitored by use of a pH meter, as described in Example 3. […] The average temperature of these solutions was 23° C. and varied between 21 and 25° C."}, "[5]": {"conditions": "Ringer's Lactate 133 μM NaHCO3, 1.10 days"}, "[6]": {"conditions": "Ringer's Lactate 133 μM NaHCO3, 1.54 days"}, "[7]": {"conditions": "Ringer's Lactate 133 μM NaHCO3, 5.79 days"}, "[8]": {"conditions": "Ringer's Lactate without pH adjustment, 1.10 days"}, "[9]": {"conditions": "Ringer's Lactate without pH adjustment, 1.54 days"}, "[10]": {"conditions": "Ringer's Lactate without pH adjustment, 5.79 days"}}, "data": [{"compound": "CC1CCCCC1(c1cccs1)N1CCCCC1.Cl", "note": "(stereo not drawn) [gacyclidine, 1-(2-methyl-1-thiophen-2-yl-cyclohexyl)-piperidine hydrochloride]", "values": [{"measurement": "concentration of gacyclidine", "setting": "[1]; DMSO stock 1:1000 (0.1% DMSO), Ringer's Lactate pH 7.5, 100 μM initial, 0-3 hours", "value": 97.5, "unit": "µM"}, {"measurement": "concentration of gacyclidine", "setting": "[1]; DMSO stock 1:1000, 0.1N HCl (pH 1.0), 100 μM initial, 0-3 hours", "value": 100.3, "unit": "µM"}, {"measurement": "concentration of gacyclidine", "setting": "[1]; DMSO stock 1:1000, 0.1N HCl (pH 1.0), 100 μM initial, 3-6 hours", "value": 100.2, "unit": "µM"}, {"measurement": "concentration of gacyclidine", "setting": "[1]; DMSO stock 1:1000, 0.1N HCl (pH 1.0), 100 μM initial, 16-19 hours", "value": 100.6, "unit": "µM"}, {"measurement": "concentration of gacyclidine", "setting": "[1]; DMSO stock 1:1000, Ringer's Lactate pH 6.6, 100 μM initial, 0-3 hours", "value": 96.0, "unit": "µM"}, {"measurement": "concentration of gacyclidine", "setting": "[1]; DMSO stock 1:1000, Ringer's Lactate pH 6.6, 100 μM initial, 3-6 hours", "value": 94.9, "unit": "µM"}, {"measurement": "concentration of gacyclidine", "setting": "[1]; DMSO stock 1:1000, Ringer's Lactate pH 6.6, 100 μM initial, 16-19 hours", "value": 91.3, "unit": "µM"}, {"measurement": "concentration of gacyclidine", "setting": "[1]; DMSO stock 1:1000, Ringer's Lactate pH 7.5, 100 μM initial, 3-6 hours", "value": 90.4, "unit": "µM"}, {"measurement": "concentration of gacyclidine", "setting": "[1]; DMSO stock 1:1000, Ringer's Lactate pH 7.5, 100 μM initial, 16-19 hours", "value": 79.3, "unit": "µM"}, {"measurement": "concentration of gacyclidine", "setting": "[1]; aqueous stock 1:1000, 0.1N HCl (pH 1.0), 100 μM initial, 0-3 hours", "value": 99.4, "unit": "µM"}, {"measurement": "concentration of gacyclidine", "setting": "[1]; aqueous stock 1:1000, 0.1N HCl (pH 1.0), 100 μM initial, 3-6 hours", "value": 99.8, "unit": "µM"}, {"measurement": "concentration of gacyclidine", "setting": "[1]; aqueous stock 1:1000, 0.1N HCl (pH 1.0), 100 μM initial, 16-19 hours", "value": 100.2, "unit": "µM"}, {"measurement": "concentration of gacyclidine", "setting": "[1]; aqueous stock 1:1000, Ringer's Lactate pH 6.6, 100 μM initial, 0-3 hours", "value": 95.1, "unit": "µM"}, {"measurement": "concentration of gacyclidine", "setting": "[1]; aqueous stock 1:1000, Ringer's Lactate pH 6.6, 100 μM initial, 3-6 hours", "value": 92.6, "unit": "µM"}, {"measurement": "concentration of gacyclidine", "setting": "[1]; aqueous stock 1:1000, Ringer's Lactate pH 6.6, 100 μM initial, 16-19 hours", "value": 87.7, "unit": "µM"}, {"measurement": "concentration of gacyclidine", "setting": "[1]; aqueous stock 1:1000, Ringer's Lactate pH 7.5, 100 μM initial, 0-3 hours", "value": 88.2, "unit": "µM"}, {"measurement": "concentration of gacyclidine", "setting": "[1]; aqueous stock 1:1000, Ringer's Lactate pH 7.5, 100 μM initial, 3-6 hours", "value": 72.0, "unit": "µM"}, {"measurement": "concentration of gacyclidine", "setting": "[1]; aqueous stock 1:1000, Ringer's Lactate pH 7.5, 100 μM initial, 16-19 hours", "value": 59.7, "unit": "µM"}, {"measurement": "gacyclidine remaining in solution at high pH", "setting": "[2]; 0.1% CAPTISOL, 1 mM added, room temperature, two days, glass", "value": "about 14 μM"}, {"measurement": "gacyclidine remaining in solution at high pH", "setting": "[2]; 0.1% SOLUTOL HS15, 1 mM added, room temperature, two days, glass", "value": "~96", "unit": "μM"}, {"measurement": "gacyclidine remaining in solution at high pH", "setting": "[2]; 0.1% TWEEN 80, 1 mM added, room temperature, two days, glass", "value": "~42", "unit": "μM"}, {"measurement": "gacyclidine base maintained in solution per gram of carrier molecule", "setting": "[2]; CAPTISOL, room temperature", "value": "0.004 grams per gram of carrier mole"}, {"measurement": "gacyclidine base maintained in solution per gram of carrier molecule", "setting": "[2]; SOLUTOL HS 15, room temperature", "value": "0.02 grams per gram of carrier mole"}, {"measurement": "gacyclidine base maintained in solution per gram of carrier molecule", "setting": "[2]; TWEEN 80, room temperature", "value": "0.01 grams per gram of carrier mole"}, {"measurement": "solubility kinetic at 2 days", "setting": "[2]; buffered aqueous solution, aqueous buffer, kinetic from dmso stock, pH 9.7, 1 mM added, room temperature, two days, glass, presence or absence of 0.1% SOLUPHOR P", "value": 2.6, "unit": "µM"}, {"measurement": "pH above which precipitation of gacyclidine was observed", "setting": "[2]; hydrochloride salt diluted to 1 mM in buffered aqueous solution", "value": "> 7"}, {"measurement": "gacyclidine remaining in solution, % of the added gacyclidine", "setting": "[2]; pH 9.7, 1 mM added, room temperature, two days, glass, presence or absence of 0.1% SOLUPHOR P", "value": 0.26, "unit": "%"}, {"measurement": "solubility", "setting": "[2]; thermodynamic from solid, hydrochloride salt, water, read-out: final concentration giving a clear solution in water", "value": "≥ 550000", "unit": "µM"}, {"measurement": "piperidine formed from 100 μM gacyclidine", "setting": "[3]; 0.3% polysorbate 80, Ringer's solution, 55° C., 24 hours, pH 6.7", "value": 4.5, "unit": "µM"}, {"measurement": "piperidine formed from 100 μM gacyclidine", "setting": "[3]; 0.3% polysorbate 80, Ringer's solution, 55° C., 24 hours, pH 8.2", "value": 0.92, "unit": "µM"}, {"measurement": "loss of gacyclidine due to precipitation", "setting": "[3]; 0.3% polysorbate 80, Ringer's solution, 55° C., 24 hours, various pH", "value": "no loss of gacyclidine due to precipitation"}, {"measurement": "decomposition rate as % of the acid form rate at 55° C.", "setting": "[3]; 0.3% polysorbate 80, pH 6.7, 55° C.", "value": 6.4, "unit": "%"}, {"measurement": "decomposition rate as % of the acid form rate at 55° C.", "setting": "[3]; 0.3% polysorbate 80, pH 8.2, 55° C.", "value": 1.3, "unit": "%"}, {"measurement": "gacyclidine", "setting": "[4]; 2.8 mg free base in 20.0 mL Ringer's Lactate 133 μM NaHCO3, 23° C., 0.625 days", "value": 20.7, "unit": "µM"}, {"measurement": "gacyclidine", "setting": "[4]; 2.8 mg free base in 20.0 mL Ringer's Lactate without pH adjustment, 23° C., 0.625 days", "value": 56.4, "unit": "µM"}, {"measurement": "pH of free base suspension", "setting": "[4]; Ringer's Lactate 133 μM NaHCO3, 0.625 days", "value": 7.54}, {"measurement": "gacyclidine", "setting": "[4]; [5]", "value": 37.1, "unit": "µM"}, {"measurement": "pH of free base suspension", "setting": "[4]; [5]", "value": 7.58}, {"measurement": "gacyclidine", "setting": "[4]; [6]", "value": "46.2 ± 0.3", "unit": "µM"}, {"measurement": "pH of free base suspension", "setting": "[4]; [6]", "value": 7.51}, {"measurement": "gacyclidine", "setting": "[4]; [7]", "value": "76.3 ± 0.3", "unit": "µM"}, {"measurement": "pH of free base suspension", "setting": "[4]; [7]", "value": 7.62}, {"measurement": "gacyclidine", "setting": "[4]; Ringer's Lactate 133 μM NaHCO3, 9.85 days", "value": "77.2 ± 0.5", "unit": "µM"}, {"measurement": "gacyclidine", "setting": "[4]; Ringer's Lactate 133 μM NaHCO3, 12.9 days", "value": "72.9 ± 1.1", "unit": "µM"}, {"measurement": "gacyclidine", "setting": "[4]; Ringer's Lactate 133 μM NaHCO3, 14.0 days", "value": "75.7 ± 2.0", "unit": "µM"}, {"measurement": "time to reach equilibrium concentration", "setting": "[4]; Ringer's Lactate containing 0.13 mM sodium bicarbonate", "value": "≤ 10", "unit": "days"}, {"measurement": "equilibrium concentration as % of the total amount of gacyclidine base added", "setting": "[4]; Ringer's Lactate with added sodium bicarbonate", "value": "~14", "unit": "%"}, {"measurement": "equilibrium concentration as % of the total amount of gacyclidine base added", "setting": "[4]; Ringer's Lactate without added sodium bicarbonate", "value": "about 30%"}, {"measurement": "pH of free base suspension", "setting": "[4]; Ringer's Lactate without pH adjustment, 0.625 days", "value": 7.66}, {"measurement": "gacyclidine", "setting": "[4]; [8]", "value": 79.8, "unit": "µM"}, {"measurement": "pH of free base suspension", "setting": "[4]; [8]", "value": 7.44}, {"measurement": "gacyclidine", "setting": "[4]; [9]", "value": "88.3 ± 2.4", "unit": "µM"}, {"measurement": "pH of free base suspension", "setting": "[4]; [9]", "value": 7.46}, {"measurement": "gacyclidine", "setting": "[4]; [10]", "value": "124.4 ± 14.5", "unit": "µM"}, {"measurement": "pH of free base suspension", "setting": "[4]; [10]", "value": 7.38}, {"measurement": "gacyclidine", "setting": "[4]; Ringer's Lactate without pH adjustment, 9.85 days", "value": "152.4 ± 0.7", "unit": "µM"}, {"measurement": "gacyclidine", "setting": "[4]; Ringer's Lactate without pH adjustment, 12.9 days", "value": "162.2 ± 1.4", "unit": "µM"}, {"measurement": "gacyclidine", "setting": "[4]; Ringer's Lactate without pH adjustment, 14.0 days", "value": "157.9 ± 3.6", "unit": "µM"}, {"measurement": "time to reach equilibrium concentration", "setting": "[4]; Ringer's Lactate without sodium bicarbonate", "value": "≤ 10", "unit": "days"}, {"measurement": "maximum concentration achieved at equilibrium", "setting": "[4]; solid gacyclidine base, starting pH near physiologic pH", "value": "about 75 μM"}]}]}
